The text below walks through data of patent publication US20220347139A1, “METHOD OF TREATMENT VIA INTRA-ARTICULAR APPLICATION OF POTASSIUM” (Rensselaer Polytechnic Institute, priority 2018, published 2022).

For test [1], the system named is Raw 264.7 murine macrophages. The test is described as follows: IFN-stimulated macrophages in PEGDA hydrogels, in vitro mimic of intra-articular injection. It is filed as cell-based. The method, then:
Referring now to FIG. 5A, an in vitro experiment was designed to mimic an intra-articular injection of potassium osmolytes consistent with the embodiments described above. Poly(ethylene glycol) diacrylate hydrogels encapsulated with proinflammatory interferon-gamma (IFN)-stimulated macrophages (M(IFN)s) were prepared. M(IFN)s were cultured for 5 days in the continued presence of IFN, with 80 mM K+ applied only during the first day and then removed. Other IA injection formulations—human mesenchymal stem cells (MSCs) and methylprednisolone acetate (MPA)—were also included to gain a sense of efficacy and benchmark against current OA treatments.
The PEGDA hydrogel (˜50 kPa stiffness) was provided at the bottom of the culture well to create a surface that more closely matches the stiffness of articular cartilage (aggregate modulus ˜500 kPa) than traditional plastic 2D surfaces (˜1×10^6 kPa). MSC behavior is known to respond to substrate stiffness. Assessments for treatment efficacy included cell lysate levels of several proinflammatory markers, anti-inflammatory markers, and the ratio between anti/proinflammatory profiles.
(§1) Raw 264.7 murine macrophages (a cell line) were thawed and expanded in regular growth medium: high-glucose Dulbecco's modified Eagle's medium (DMEM; Corning) supplemented with 10% fetal bovine serum (FBS; Hyclone, Atlanta Biologicals, Inc.). Primary human OACs (Cell Applications, Inc.) were expanded in chondrogenic growth media for four passages, transitioned into regular growth medium for 1 passage, and utilized at passage 5.
Aliquots ([…]; 1×10^6 cells per construct) of the cell/polymer suspension were dispensed into the wells of a 48-well plate (Corning) and cured by exposure to long-wave UV light (˜10 mW/cm^2) for 6 min. […]
Referring now to FIGS. 5B and 5C, relative protein production of proinflammatory and anti-inflammatory molecules and the ratio between anti/proinflammatory profiles in Raw 264.7 macrophages were determined after 5 days in culture. […]

The test system of test [2] is Primary human OACs. Description: Inflammatory protein production in osteoarthritic chondrocytes after short-term K+ treatment. It is filed as cell-based.
Text: as §1
Referring now to FIGS. 5B and 5C, relative protein production of proinflammatory and anti-inflammatory molecules and the ratio between anti/proinflammatory profiles in Raw 264.7 macrophages were determined after 5 days in culture. “*” denotes a significant difference relative to IFN controls. “#” denotes a significant difference relative to 24-h 80 mM K^+ gluconate. “+” denotes a significant difference relative to 24-h MSCs.

Entries after “also recorded” stand apart in the source; their conditions may differ.

In the case of `O=C([O-])[C@H](O)[C@@H](O)[C@H](O)[C@H](O)CO.[K+]` [K+ gluconate, potassium gluconate], in test [1] (80 mM K+ applied during the first day only, 5 days in culture in continued presence of IFN, relative to IFN controls), the “anti/proinflammatory cytokine ratio (relative protein production)” value is given as “significantly enhanced”. In addition, the macrophage polarization entry in test [1] (80 mM, M(IFN)s) is “toward an anti-inflammatory/proresolving phenotype”. Further, the “anti/proinflammatory profile, 40 mM versus 80 mM treatment” value in test [1] (comparison between 40 and 80-mM treatments) is “not significantly different”. Further, in test [2], the IL-8 production entry is listed as “extended benefit” and the MCP-1 production result is “extended benefit”. In addition, in test [2] (listed as K^+), the MMP-13 production result is listed as “extended benefit; also recorded: reduced production”.
